# Source: PMC4765732 (Journal of medicinal chemistry, 2015)
# Assays:
# [1] = tested on: HIV-1LAI; test: Antiviral assay in MT-2 human T-lymphocytes exposed to HIV-1LAI; type: cell-based
# [2] = tested on: HIV-1DRV^RP51; type: cell-based; settings: against HIV-1DRV^RP51
Structure (SMILES),improvement in antiviral activity over the methyl and ethyl derivatives ([1]; antiviral IC50 versus 25f and 25i),improvement in EC50 values over darunavir [2],loss in antiviral activity ([1]; versus Boc-derivative 25c)
"COc1ccc(S(=O)(=O)N(CC(C)C)C[C@@H](O)[C@H](Cc2ccccc2)NC(=O)O[C@H]2CO[C@H]3OC[C@H](NC(C)C)[C@H]32)cc1 [Inhibitor 25j, (3R,3aS,4R,6aR)-4-(Isopropylamino)hexahydrofuro[2,3-b]furan-3-yl ((2S,3R)-3-hydroxy-4-((N-isobutyl-4-methoxyphenyl)sulfonamido)-1-phenylbutan-2-yl)carbamate]",over 60 fold,10 fold,
CCN[C@H]1CO[C@@H]2OC[C@H](OC(=O)N[C@@H](Cc3ccccc3)[C@H](O)CN(CC(C)C)S(=O)(=O)c3ccc(OC)cc3)[C@@H]21 [Inhibitor 25i],,10 fold,
"COc1ccc(S(=O)(=O)N(CC(C)C)C[C@@H](O)[C@H](Cc2ccccc2)NC(=O)O[C@H]2CO[C@H]3OC[C@H](N(C)C(=O)OC(C)(C)C)[C@H]32)cc1 [Inhibitor 25e, (3R,3aS,4R,6aR)-4-((2S,3R)-3-Hydroxy-4-(N-isobutyl-4-methoxyphenylsulfonamido)-1-phenylbutan-2-ylcarbamoyloxy)hexahydrofuro[2,3-b]furan-3-yl methyl t-butyl carbamate]",,,~10 fold
